Measurements: ChEMBL document CHEMBL5696442, “Discovery of type II inhibitors of TGFβ-activated kinase 1 (TAK1) and mitogen-activated protein kinase kinase kinase kinase 2 (MAP4K2)” (J Med Chem, 2015)

Assays:
[1] = target: Serine/threonine-protein kinase PLK1 (Homo sapiens) (UniProt P53350); assay: Inhibition of PLK1 Lys2 labeling site harbouring DLKLGNLFLNEDLEVK in human Huh-7 cell lysate at 1 uM by KiNativ Profiling analysis relative to control; assay type: subcellular
[2] = target: T1, Mitogen-activated protein kinase 12 (Homo sapiens) (UniProt P53778); assay: Inhibition of p38gamma (unknown origin) at 10 uM by Ambit Kinomescan binding assay relative to control; values are per cent of control
T1 sequence (whole entry): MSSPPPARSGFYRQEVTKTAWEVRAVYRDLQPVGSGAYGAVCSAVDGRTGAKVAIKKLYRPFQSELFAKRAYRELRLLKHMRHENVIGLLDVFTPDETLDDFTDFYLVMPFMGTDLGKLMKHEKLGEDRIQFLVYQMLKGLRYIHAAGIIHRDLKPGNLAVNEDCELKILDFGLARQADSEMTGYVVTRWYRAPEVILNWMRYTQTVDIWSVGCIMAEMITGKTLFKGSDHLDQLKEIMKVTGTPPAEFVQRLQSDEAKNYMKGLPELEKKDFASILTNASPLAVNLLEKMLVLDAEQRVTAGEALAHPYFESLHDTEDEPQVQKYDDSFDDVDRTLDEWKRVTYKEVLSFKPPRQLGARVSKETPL

[3] = target: T2, Atrial natriuretic peptide receptor 2 (Homo sapiens) (UniProt P20594); assay: Inhibition of ANPb Lys2 labeling site in human A-375 cells at 0.5 uM by KiNativ Profiling analysis relative to control; assay type: cell-based
T2 sequence (whole entry): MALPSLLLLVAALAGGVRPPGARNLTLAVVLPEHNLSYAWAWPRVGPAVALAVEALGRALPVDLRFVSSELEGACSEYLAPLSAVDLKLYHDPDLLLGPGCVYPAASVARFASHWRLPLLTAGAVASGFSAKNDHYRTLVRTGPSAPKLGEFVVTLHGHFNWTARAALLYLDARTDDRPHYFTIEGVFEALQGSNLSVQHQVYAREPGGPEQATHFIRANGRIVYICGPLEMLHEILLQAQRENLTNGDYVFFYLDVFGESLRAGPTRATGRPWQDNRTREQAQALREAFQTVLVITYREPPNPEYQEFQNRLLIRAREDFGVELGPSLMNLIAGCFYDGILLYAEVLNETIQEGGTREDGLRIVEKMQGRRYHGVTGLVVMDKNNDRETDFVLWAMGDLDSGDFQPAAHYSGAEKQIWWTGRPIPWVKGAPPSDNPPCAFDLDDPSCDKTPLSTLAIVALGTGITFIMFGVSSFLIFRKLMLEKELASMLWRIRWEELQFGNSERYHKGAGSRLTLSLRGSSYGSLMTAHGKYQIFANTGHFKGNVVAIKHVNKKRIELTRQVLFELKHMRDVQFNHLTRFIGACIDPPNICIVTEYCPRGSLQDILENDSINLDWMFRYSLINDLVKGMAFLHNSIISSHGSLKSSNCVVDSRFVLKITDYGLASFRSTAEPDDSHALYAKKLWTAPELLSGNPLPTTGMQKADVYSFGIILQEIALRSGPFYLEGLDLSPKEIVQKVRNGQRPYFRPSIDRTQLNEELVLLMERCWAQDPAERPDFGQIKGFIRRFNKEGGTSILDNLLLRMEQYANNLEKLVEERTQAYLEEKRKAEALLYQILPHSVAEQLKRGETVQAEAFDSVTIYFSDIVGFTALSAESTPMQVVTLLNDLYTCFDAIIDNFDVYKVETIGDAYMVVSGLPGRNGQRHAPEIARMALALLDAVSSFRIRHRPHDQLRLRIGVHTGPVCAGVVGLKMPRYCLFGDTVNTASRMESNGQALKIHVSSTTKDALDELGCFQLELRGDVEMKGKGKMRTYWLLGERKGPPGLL

[4] = target: T3, Kinase suppressor of Ras 1 (Homo sapiens) (UniProt Q8IVT5); assay: Inhibition of KSR1 ACT labeling site harbouring SKNVFYDNGKVVITDFGLFGISGVVR in human A-375 cells at 5 uM by KiNativ Profiling analysis relative to control; assay type: cell-based
T3 sequence (whole entry): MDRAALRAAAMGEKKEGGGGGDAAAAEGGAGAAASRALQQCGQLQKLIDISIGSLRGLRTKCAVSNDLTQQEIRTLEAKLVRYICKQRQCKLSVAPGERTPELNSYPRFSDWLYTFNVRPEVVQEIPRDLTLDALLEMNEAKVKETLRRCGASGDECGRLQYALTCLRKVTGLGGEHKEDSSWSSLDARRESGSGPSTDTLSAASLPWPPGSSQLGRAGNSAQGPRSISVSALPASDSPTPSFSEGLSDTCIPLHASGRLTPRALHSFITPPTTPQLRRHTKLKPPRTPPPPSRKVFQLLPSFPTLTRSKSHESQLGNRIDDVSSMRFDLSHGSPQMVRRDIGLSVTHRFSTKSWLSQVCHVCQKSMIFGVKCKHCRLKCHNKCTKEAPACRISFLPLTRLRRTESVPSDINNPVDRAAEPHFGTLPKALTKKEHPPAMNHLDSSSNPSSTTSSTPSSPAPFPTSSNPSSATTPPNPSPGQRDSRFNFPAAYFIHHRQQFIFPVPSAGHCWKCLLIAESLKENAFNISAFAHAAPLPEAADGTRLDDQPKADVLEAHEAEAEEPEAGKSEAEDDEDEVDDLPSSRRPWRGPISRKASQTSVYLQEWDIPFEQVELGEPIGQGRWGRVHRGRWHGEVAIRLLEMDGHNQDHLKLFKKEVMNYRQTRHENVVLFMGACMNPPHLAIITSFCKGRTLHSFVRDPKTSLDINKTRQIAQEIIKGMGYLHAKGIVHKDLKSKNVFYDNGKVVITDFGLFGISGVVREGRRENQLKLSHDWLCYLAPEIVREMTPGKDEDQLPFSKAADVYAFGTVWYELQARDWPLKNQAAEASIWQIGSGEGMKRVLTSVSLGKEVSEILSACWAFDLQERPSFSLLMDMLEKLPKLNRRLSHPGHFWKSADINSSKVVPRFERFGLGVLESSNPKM

Sequence of Serine/threonine-protein kinase PLK1 (Homo sapiens) (P53350 whole entry): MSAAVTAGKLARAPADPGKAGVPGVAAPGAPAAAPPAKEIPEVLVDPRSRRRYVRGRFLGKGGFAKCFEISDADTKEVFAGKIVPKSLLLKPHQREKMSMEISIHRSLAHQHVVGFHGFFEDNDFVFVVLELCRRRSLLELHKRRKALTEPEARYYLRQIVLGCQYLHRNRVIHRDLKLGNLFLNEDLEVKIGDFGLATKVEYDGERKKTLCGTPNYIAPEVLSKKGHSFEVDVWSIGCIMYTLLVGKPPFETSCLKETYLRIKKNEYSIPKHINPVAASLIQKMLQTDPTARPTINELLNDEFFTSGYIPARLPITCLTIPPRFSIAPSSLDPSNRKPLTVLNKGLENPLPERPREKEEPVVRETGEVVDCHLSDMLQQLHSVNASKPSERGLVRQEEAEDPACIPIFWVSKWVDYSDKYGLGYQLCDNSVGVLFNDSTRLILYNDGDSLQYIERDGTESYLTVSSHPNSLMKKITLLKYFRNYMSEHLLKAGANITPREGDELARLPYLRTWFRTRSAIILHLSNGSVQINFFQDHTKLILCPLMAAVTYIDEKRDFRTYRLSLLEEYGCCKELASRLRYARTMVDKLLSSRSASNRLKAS

CNc1cc(Oc2cc(C(=O)Nc3cc(N4CCN(C)CC4)cc(C(F)(F)F)c3)ccc2C)ncn1
inhibition [1]: -8.3%

CCN1CCN(Cc2ccc(NC(=O)c3ccc(C)c(Oc4ccnc5[nH]ccc45)c3)cc2C(F)(F)F)CC1
percent of control [2]: 0%
inhibition [3]: -9.4%

CCN1CCN(Cc2ccc(NC(=O)c3ccc(C)c(/C=C/c4cnc5[nH]ccc5c4OC)c3)cc2C(F)(F)F)CC1
inhibition [4]: 1.7%
